BindingDB's records for doi:10.1021/jm9806300 (Massachusetts General Hospital, 1999)

Target: muscle nicotinic acetylcholine receptor (Mus musculus)
Experiment: The compound was tested for inhibitory potency against Nicotinic acetylcholine receptor in mouse muscle.

IC50: 33 µM
SMILES: CCCCCC1(CCO)N=N1 [2-(3-Pentyl-3H-diazirin-3-yl)-ethanol]
